Reference: patent US7629310B2, “RhoB as a suppressor of cancer cell growth, cell transformation, and metastasis” (University of South Florida, priority 2000, dated 2009)

Columns and labels:
RhoB protein levels = experiment: RhoB protein level by Western blotting in PANC-1 cells; type: cell-based, human; conditions: treated 48 hours (FIG. 7E)
Procedure: H-Ras/3T3 cells were treated with (FIG. 7A) different concentrations of LY294002 for 48 hrs or (FIG. 7B) LY294002 (20 μM) for different time intervals. The cells were then lysed and analyzed for RhoB and RhoA protein levels by Western Blotting with anti-RhoB and anti-RhoA; the same filter was re-probed with antiβ-actin for loading control. NIH3T3 cells (FIG. 7C) were transiently transfected with various genes as indicated for 24 hours; and then treated with either DMSO vehicle or LY294002 or 5-FU alone or in combination for another 48 hours. The cells were analyzed for RhoB, RhoA, and β-actin protein levels as described above. […] The cells were analyzed for RhoB and RhoA protein levels by Western Blotting with anti-RhoB and anti-RhoA; the same filter was re-probed with anti-β-actin, anti-HA and anti-pan-Akt antibodies. PANC-1 cells (FIG. 7E) and A549 cells (FIG. 7F) were treated PD, LY or 5-FU as indicated for 48 hours; then analyzed for RhoB and RhoA protein levels by Western Blotting as described above.
Western Blot Analysis. […] Antigen-bound antibody was detected by enhanced chemiluminescence Western blotting kit ([…] […] BIOTECH), Piscataway, N.J.). β-actin was detected as an internal loading control.

RhoB promoter [1] = experiment: RhoB promoter transcriptional activity (luciferase reporter) in human cancer cell lines A-549, Panc-1, C33A; type: cell-based; conditions: for RhoB Promoter transcriptional activity (% inhibition): vs pcDNA3 control
Source text: Gene Constructs and RhoB Promoter Transcriptional Activity Assay. Constitutively active H-Ras61L, K-RasV12, N-RasV12, and dominant negative […]-Ras were kind gifts from Dr. Channing Der (University of North Carolina) (Khosravi-Far, R. et al., Mol Cell Biol, 1995, 15:6443-53; Quilliam, L. A. et al., Mol Cell Biol, 1994, 14:1113-21). Wild-type RhoA and RhoB were subcloned into hemaglutinin (HA)-tagged pcDNA3 (INVITROGEN). The orientation and the sequences of these genes were confirmed by DNA sequencing facilities at the H. Lee Moffitt Cancer Center, Tampa, Fla. RhoB promoter construct pGEI was kindly provided by Dr Y. Monden (Banyu Tsukuba Research, Japan) (Nakamura et al., 1996). pCMV-β-galactosidase vector was purchased from INVITROGEN. The plasmid containing CA-, DN-PI3K, Mek and Akt were kindly provided by Dr. Julie Y. Djeu (H. Lee Moffitt Cancer and Research Institute, Tampa, Fla.) (Jiang, K. et al., Blood, 2003, 101:236-44). β-galactosidase activity and luciferase assay kits were purchased from PROMEGA Corporation, Madison, Wis. The serum response element (SRE) reporter was provided by Dr. Richard Jove, H. Lee Moffitt Cancer and Research Institute, Tampa, Fla. […] Richard Jove, Oncology program, H. Lee Moffitt Cancer and Research Institute, Tampa, Fla. […] Human EGFR, ErbB2 cDNA construct were kindly provided by Dr. Noreen Luetteke, H. Lee Moffitt Cancer and Research Institute, Tampa, Fla. (Luetteke, N. C. et al., Genes Dev, 1994, 8:399-413). DNA transfection was performed with the standard lipofectamine protocol (INVITROGEN). Briefly, cells were plated in 60-mm plates, pGEI plasmid was used at 2 μg per plate, whereas all the other plasmids were used at 0.1-1.0 μg per plate. After transfection the cells were grown for another 36-48 h. Cells were then washed twice with PBS and lyzed in Promega Passive Lysis Buffer. Aliquots of the lysates were then used to measure the luciferase and β-galactosidase activities. The luciferase values were first divided by β-galactosidase values. The RhoB promoter transcriptional activity was determined by dividing the luciferase/β-Gal values from oncogene-transfected cells by those from pcDNA3-transfected cells. […] All the samples were performed in triplicate and the averages of 3 independent experiments were reported here. Proteins that induce malignant transformation and those that suppress tumorigenesis most likely antagonize each other's functions. […] Du, W. et al., Mol Cell Biol, 1999, 19:1831-40; Du, W. and Prendergast, G. C., Cancer Res, 1999, 59:5492-6). An objective of the experiments described herein was to determine whether oncogenes that are prevalent in human cancers suppress RhoB expression, and whether RhoB antagonizes the ability of these oncogenes to induce malignant transformation. To this end, the effects of several oncogenes on RhoB promoter transcriptional activity were first evaluated. NIH3T3 cells and human cancer cell lines derived from lung (A-549), pancreatic (Panc-1) and cervical (C33A) tumors were transiently transfected with pcDNA3 empty vectors or pcDNA3 constructs containing various oncogenes along with full length RhoB promoter firefly luciferase reporter and SRE-renilla luciferase reporter as well as a β-gal reporter for controlling transfection efficiency as described in the Materials and Methods section.

RhoB promoter [2] = experiment: RhoB promoter transcriptional activity in H-Ras/3T3 cells; type: cell-based; conditions: treated 12 hours (FIG. 6B)
Source text: The cell lysates were processed as in FIGS. 5A-5D. […] The cell lysates were processed as in FIGS. 5A-5D. […] The cell lysates were processed as in FIGS. 5A-5D. Gene Constructs and RhoB Promoter Transcriptional Activity Assay. Constitutively active H-Ras61L, K-RasV12, N-RasV12, and dominant negative […]-Ras were kind gifts from Dr. Channing Der (University of North Carolina) (Khosravi-Far, R. et al., Mol Cell Biol, 1995, 15:6443-53; Quilliam, L. A. et al., Mol Cell Biol, 1994, 14:1113-21). Wild-type RhoA and RhoB were subcloned into hemaglutinin (HA)-tagged pcDNA3 (INVITROGEN). The orientation and the sequences of these genes were confirmed by DNA sequencing facilities at the H. Lee Moffitt Cancer Center, Tampa, Fla. RhoB promoter construct pGEI was kindly provided by Dr Y. Monden (Banyu Tsukuba Research, Japan) (Nakamura et al., 1996). pCMV-β-galactosidase vector was purchased from INVITROGEN. The plasmid containing CA-, DN-PI3K, Mek and Akt were kindly provided by Dr. Julie Y. Djeu (H. Lee Moffitt Cancer and Research Institute, Tampa, Fla.) (Jiang, K. et al., Blood, 2003, 101:236-44). β-galactosidase activity and luciferase assay kits were purchased from PROMEGA Corporation, Madison, Wis. […] The RhoB promoter transcriptional activity was determined by dividing the luciferase/β-Gal values from oncogene-transfected cells by those from pcDNA3-transfected cells. […]

NIH3T3 cells = experiment: 5-FU-induced apoptosis (Annexin V, flow cytometry) in NIH3T3 cells; type: cell-based; conditions: NIH3T3, transfected 24 hours then 5-FU 48 hours (FIG. 10A); control 28-30%
Procedure: Apoptosis Assay. Cells were collected by trypsinization, washed in wash buffer and stained with Annexin V and 7-AAD according to manufacturer's recommendation (PharMingen, San Diego, Calif.). Data acquisition and analysis was performed by the Flow Cytometry Core Facility at the H. Lee Moffitt Cancer Center (Tampa, Fla.). All the samples were performed in duplicate and a representative of 3 independent experiments were reported here.

RhoB promoter [3] = experiment: RhoB promoter transcriptional activity (luciferase reporter) in NIH3T3 cells; type: cell-based
Source text: Gene Constructs and RhoB Promoter Transcriptional Activity Assay. Constitutively active H-Ras61L, K-RasV12, N-RasV12, and dominant negative […]-Ras were kind gifts from Dr. Channing Der (University of North Carolina) (Khosravi-Far, R. et al., Mol Cell Biol, 1995, 15:6443-53; Quilliam, L. A. et al., Mol Cell Biol, 1994, 14:1113-21). Wild-type RhoA and RhoB were subcloned into hemaglutinin (HA)-tagged pcDNA3 (INVITROGEN). The orientation and the sequences of these genes were confirmed by DNA sequencing facilities at the H. Lee Moffitt Cancer Center, Tampa, Fla. RhoB promoter construct pGEI was kindly provided by Dr Y. Monden (Banyu Tsukuba Research, Japan) (Nakamura et al., 1996). pCMV-β-galactosidase vector was purchased from INVITROGEN. The plasmid containing CA-, DN-PI3K, Mek and Akt were kindly provided by Dr. Julie Y. Djeu (H. Lee Moffitt Cancer and Research Institute, Tampa, Fla.) (Jiang, K. et al., Blood, 2003, 101:236-44). β-galactosidase activity and luciferase assay kits were purchased from PROMEGA Corporation, Madison, Wis. The serum response element (SRE) reporter was provided by Dr. Richard Jove, H. Lee Moffitt Cancer and Research Institute, Tampa, Fla. (Turkson, J. et al., Mol Cell Biol, 1999, 19:7519-28). […] Richard Jove, Oncology program, H. Lee Moffitt Cancer and Research Institute, Tampa, Fla. (Turkson, J. et al., Mol Cell Biol, 1999, 19:7519-28). […] (Luetteke, N. C. et al., Genes Dev, 1994, 8:399-413). DNA transfection was performed with the standard lipofectamine protocol (INVITROGEN). […] After transfection the cells were grown for another 36-48 h. Cells were then washed twice with PBS and lyzed in Promega Passive Lysis Buffer. Aliquots of the lysates were then used to measure the luciferase and β-galactosidase activities. The luciferase values were first divided by β-galactosidase values. The RhoB promoter transcriptional activity was determined by dividing the luciferase/β-Gal values from oncogene-transfected cells by those from pcDNA3-transfected cells. […] All the samples were performed in triplicate and the averages of 3 independent experiments were reported here.

Q: With `O=c1cc(N2CCOCC2)oc2c(-c3ccccc3)cccc12` [LY294002] as the compound, how does the “induction of RhoB protein levels” value (RhoB protein levels) read?
A: 8 fold

Q: What about the “5-FU induction of RhoB promoter activity” value (RhoB promoter [1]; PANC-1 and A-549 cells expressing mutated K-Ras) of the same compound?
A: sensitize these cells to 5-FU induction of RhoB promoter activity

Q: And the “induction of RhoB promoter activity” value (RhoB promoter [2])?
A: 1.7 fold

Q: With `COc1cccc(-c2cc(=O)c3ccccc3o2)c1N` [PD98059] as the compound, how does the “induction of RhoB protein levels” value (RhoB protein levels) read?
A: no induction

Q: With “Akt: Akt expression construct transfected into NIH3T3 cells” as the compound, how does the “5-FU apoptotic rate after transfection” value (NIH3T3 cells) read?
A: 17%

Q: What does the source list for ErbB2: human ErbB2 cDNA construct?
A: inhibition of RhoB promoter activity (RhoB promoter [3]; NIH3T3, in the presence of N17-H-Ras): 18%; RhoB Promoter transcriptional activity (% inhibition) (RhoB promoter [3]; NIH3T3, transiently transfected 36 hrs, vs pcDNA3 control): 79 ± 3.9%; RhoB Promoter transcriptional activity (% inhibition) (RhoB promoter [1]; A549, transiently transfected 36 hrs): 74 ± 4.3%; RhoB Promoter transcriptional activity (% inhibition) (RhoB promoter [1]; C33A, transiently transfected 36 hrs): 69 ± 3.6%; RhoB Promoter transcriptional activity (% inhibition) (RhoB promoter [1]; PANC1, transiently transfected 36 hrs): 68 ± 4.1%
